Patent publication US7799794B2, “Treatment for cardiovascular disease” (Merck Sharp & Dohme Corp., priority 2000, dated 2010)

Legend:
Format in all cases: in vivo, rat
[1] = test system: Sprague-Dawley rats; assay: Renal findings at 11 weeks: immunohistochemistry and BUN (Example 3)
Description: (§1) Rats were placed on the low sodium diet with oxonic acid for 7 weeks, and then were matched based on uric acid level and blood pressure in various groups to either receive allopurinol, have the oxonic acid withdrawn from the diet, or continue the oxonic acid/low salt diet. A control group of six rats were placed on the lowsodium diet alone for 11 weeks. All of these rats were sacrificed at week 11.
(§2) Am J Clin Pathol 1957; 28:152.]. Serum blood urea nitrogen was measured by a standard kit (Sigma, St Louis, Mo.).
(§3) Renal biopsies were fixed in Methyl-Carnoy's, 10% formalin or 100% ethanol and embedded in paraffin. The presence of uric acid crystals was evaluated by staining 4-μm ethanol-fixed sections with de Galantha and modified Von Kossa stains. Kidney tissue from rats with acute uric acid nephropathy, induced with oxonic acid and uric acid administration was used as a positive control [Stavric, B., Johnson, W. J., and Grice, H. C., Uric acid nephropathy: An experimental model, Proc. Soc. Exp. Biol. Med. 130: 512-16 (1969).]. Light microscopy was performed in 4-μm sections of Methyl-Carnoy's fixed tissue stained with periodic acid Schiff (PAS) reagent or with hematoxylin and eosin.
Methyl-Carnoy's fixed tissue sections were analyzed by indirect immunoperoxidase [Lombardi, D., Gordon , K. L., Polinsky, P., Suga, S., Schwartz, S. M., and Johnson, R. J. Salt sensitive hypertension develops after transient exposure to angiotensin II. Hypertension 33:1013-1019, 1999] staining with the following primary antibodies: OP199, a goat polyclonal antibody against osteopontin (OPN)(gift of C. Giachelli, Univ of Wash., Seattle); ED-1, a monoclonal antibody to rat monocytes and macrophages (Serotec); goat antihuman type III collagen (Southern Biotechnology Associates Inc, Birminghan Ala.); and anti-renin, a mouse antibody to human renin (Sanofi Recherche, Montpellier, France). Sections were incubated with a secondary antibody followed by horseradish peroxidase-conjugated avidin D (Vector Laboratories, Burlingame, Calif.), diaminobenzidine (Sigma) with or without nickel chloride as a chromogen, and counsterstained with methyl green.
NOS1 was detected on formalin fixed tissue sections with a rabbit anti-rat neuronal nitric oxide synthase (Transduction Laboratories, Lexington, Ky.), followed by a biotinylated secondary antibody, diaminobenzidine with nickel chloride and counterstained with nuclear fast red.
All quantification was performed blinded. The tubular expression of osteopontin (OPN), which is a sensitive marker of tubulointerstitial injury, was calculated as the percent of renal cortex occupied by OPN-positive tubules [Lombardi, D., Gordon, K. L., Polinsky, P., Suga, S., Schwartz, S. M., and Johnson, R. J. Salt sensitive hypertension develops after transient exposure to angiotensin II. Hypertension 33:1013-1019, 1999]. Utilizing computer-assisted image analysis software (Optimas V6.2, Media Cybernetics, Silver Springs, Md.) and digitized images, the percent of area occupied by OPN positive tubules per 4 mm^2 field at a magnification of 50× was measured and the mean percent area calculated for each biopsy. The interstitial deposition of collagen type III was calculated as the % of renal cortex occupied by collagen III, noted by immunostaining, by computer image analysis. The mean number of interstitial macrophages (ED-1+cells) in each biopsy was calculated in a blinded manner by counting the total number of positive interstitial cortical cells in 20 sequentially selected 0.25 mm^2 grids at 200× magnification. Renin expression was quantified by the number of glomeruli with positive staining for juxtaglomerular renin using a minimum of 100 glomeruli in each biopsy as previously described [Eng, E., et al., Renal proliferation and phenotypic changes in rats with two-kidney, one-clip Goldblatt hypertension. […]

[2] = test system: Sprague-Dawley rats; assay: Allopurinol intervention or oxonic acid withdrawal in hyperuricemic rats: blood pressure (Example 3); details: oxonic acid withdrawn at 7 weeks, LSD continued
From the text: as §1
(§4) Am J Physiol 268:F1 164-76, 1995].
as §2

[3] = test system: Sprague-Dawley rats; assay: Mild hyperuricemia model: 2% oxonic acid on normal salt diet (Example 1)
Description: All studies utilized adult male Sprague-Dawley rats (Simonsen Laboratories, Gilroy Calif.)(200-250 g).
Rats were placed on a normal salt (NaCl 0.26%) diet with or without 2% oxonic acid (Ziegler Bros, Gardners, Pa.) added to the diet and rats were sacrificed at week 7.
Am J Physiol 268:F1164-76, 1995].
as §2, §3

[4] = test system: Sprague-Dawley rats; assay: Enalapril or L-Arginine in hyperuricemic rats on low salt diet: blood pressure (Example 4); details: hyperuricemic control rats, OA + low salt diet
Description: Rats were placed on either low salt diet, low salt diet with 2% oxonic acid, low salt diet with oxonic acid and enalapril (1 mg/kg/d in drinking water), or low salt diet with oxonic acid and L-Arginine (1% in drinking water).
as §4

With `O=C(O)c1nc(=O)[nH]c(=O)[nH]1` [oxonic acid] as the molecule, how does the BUN ([1]; OA withdrawal at 7 weeks) read?
The BUN was 18.8 ± 0.8 mg/dL.

And the “ED-1 (macrophages)” value ([1]; OA withdrawal at 7 weeks)?
The value was 33.0 ± 1.6 cells/mm2.

And the NOS-1 ([1]; OA withdrawal at 7 weeks)?
Its NOS-1 is 83.1 ± 10.8 positive cells/100 glomeruli.

And the OPN ([1]; OA withdrawal at 7 weeks)?
The OPN was 1.08 ± 0.06 % increase.

What about the Renin ([1]; OA withdrawal at 7 weeks) of the same molecule?
The Renin was 50.5 ± 2.1 % positive JGA.

What about the “Type III collagen” value ([1]; OA withdrawal at 7 weeks) of the same molecule?
Its value is 8.9 ± 1.6 %.

What about the OPN ([1]; low NaCl diet, allopurinol added at 7 weeks, control 0.7 ± 0.08) of the same molecule?
Its OPN is 1.33 ± 0.14 % increase.

What about the “Type III collagen” value ([1]; low NaCl diet, allopurinol added at 7 weeks, control 7.2 ± 0.6) of the same molecule?
The value was 13.9 ± 0.6 %.

And the BUN ([1]; low NaCl diet, allopurinol added at 7 weeks, control 16.6 ± 0.9)?
The BUN was 24.1 ± 1.7 mg/dL.

And the “ED-1 (macrophages)” value ([1]; low NaCl diet, allopurinol added at 7 weeks, control 27.8 ± 1.4)?
The value was 36.5 ± 1.4 cells/mm2.

What about the Renin ([1]; low NaCl diet, allopurinol added at 7 weeks, control 41.0 ± 1.9) of the same molecule?
Its Renin is 58.4 ± 0.8 % positive JGA.

What about the NOS-1 ([1]; low NaCl diet, allopurinol added at 7 weeks, control 104.4 ± 11.5) of the same molecule?
Its NOS-1 is 65.6 ± 7.1 positive cells/100 glomeruli.

And the “blood pressure and serum uric acid in hypertensive, hyperuricemic rats” value [2]?
Its value is “reduction in the blood pressure in association with a fall in serum uric acid values”.

And the “body weight at the end of the study” value ([3]; 2% oxonic acid diet, normal salt diet, 7 weeks, control 394±18)?
The value was 367.6 ± 17 g.

And the urinary uric acid ([3]; 2% oxonic acid in the diet)?
The urinary uric acid was “increased two-fold”.

And the “special stains for uric acid crystals in kidney” value ([3]; 2% oxonic acid, 7 weeks)?
The value was “negative”.

And the “increase in systolic blood pressure over the 7 week dietary period” value [4]?
The value was “approximately 20 mm Hg”.
